Type in all cases: cell-based, Human
Assay [1] relates to HUVEC cells. The assay can be described thus: Danazol effect on HUVEC cell proliferation (Celltiter 96 AQueous One). To be noted: for OD: OD±standard deviation. As to the method: Primary HUVEC and EGM-2 growth medium were obtained from Cambrex (Walkersville, Md.). The cells were passaged in medium supplemented with 2% fetal calf serum (FCS) in tissue culture flasks at 37° C. and 5% CO2. Subculturing was performed using trypsin when 60-80% confluence was obtained as specified by the supplier.
Cryopreserved ampoules of passage 2 HUVEC cells were thawed and plated in 96 well tissue culture plates at 5,000 cells/cm^2. A 50 mM stock solution of danazol was prepared in ethanol and the FCS in the medium was increased to 5% to keep danazol in solution. The cells were treated with medium containing final concentrations of danazol ranging from 0.1 to 100 μM in triplicates. 24, 48, and 72 hour incubations were performed and cell proliferation was determined utilizing Celltiter 96 AQueous One Solution Cell Proliferation assay from Promega (Madison, Wis.). In short, medium was aspirated from each well and the cells were washed with 200 μl […] buffered saline (HBSS) from Cambrex warmed to 37° C. 100 μl diluted celltiter solution (15 μl stock+85 μl EGM-2 containing 0.1% FCS) were added to each well and incubated for an additional 4 hours. Optical density was determined by microplate reader using a 530 nm filter after blank subtraction and data presented as OD±standard deviation. The final concentration of ethanol in the wells was less then 0.2% and had no effect on cell proliferation or viability.
All data are presented as representative experiment done in triplicate. Differences between subsets were analyzed using student t-test in Microsoft Excel. P<0.05 was considered statistically significant.

Assay [2] concerns HUVEC cells. Nature of the assay: Danazol Endothelial Cell Tube Formation Assay on matrigel plugs. To be noted: 5% FCS, 18 hours. As to the method: To investigate the formation of capillary-like structures by HUVEC cells, the Angiogenesis System Endothelial Cell Tube Formation Assay was purchased from BD Biosciences (San Jose, Calif.) and used according to the manufacturers protocol. In brief, 100,000 HUVEC cells were seeded onto rehydrated matrigel plugs in 96 well tissue culture plates in the presence of 5% FCS to induce tube formation. […] After 18 hours the wells were photographed using a Kodak DCS Pro SLR/N digital camera (Rochester, N.Y.) mounted on an inverted microscope. Ethanol treated wells were included to determine if the vehicle had any effects on cell differentiation.

The subject of assay [3] is HUVEC cells. The assay can be described thus: Danazol BioCoat Matrigel Invasion Chamber. Particulars: 5% FCS in bottom chamber, 24 hours. As to the method: BioCoat Matrigel Invasion Chambers were purchased from BD Biosciences (San Jose, Calif.). Inserts were rehydrated at 37° C. with 500 μl HBSS for 2 hours prior to use in humidified incubator. Trypsinized HUVEC cells were washed twice with warm EGM-2 containing 0.1% FCS and added to the upper chamber of the invasion insert at 100,000 cells in a total volume of 250 μl. Danazol and control compounds were added to the upper reservoir at final concentrations of 10 μM and 100 μM. 750 μl EGM-2 supplemented with 5% FCS was added to the bottom chamber to initiate invasion and the plates were incubated for 24 hours. Non-invasive cells were removed from the upper chamber with moistened cotton swabs and then the inserts were washed twice with HBSS. The inserts were then submerged in 10 μM calcein AM prepared in HBSS and incubated for 4 hours. Fluorescence was determined in a microplate reader at 485 nm excitation and 595 nm emission.
All data is presented as representative experiment done in triplicate. Differences between subsets were analyzed using student t-test in Microsoft Excel. P<0.05 was considered statistically significant.

Setting [4] is: Homo sapiens, HUVEC, 24 h, read-out: percent inhibition of proliferation.
Setting [5] is: Homo sapiens, HUVEC, 48 h, read-out: percent inhibition of proliferation.
The mark [6] stands for this setting: Homo sapiens, HUVEC, 72 h, read-out: percent inhibition of proliferation.

Where two headings read alike, the source gives them in different places.

Regarding `C#C[C@]1(O)CC[C@H]2[C@@H]3CCC4=Cc5oncc5C[C@]4(C)[C@H]3CC[C@@]21C` [danazol, 17α-pregna-2,4-dien-20-yno[2,3-d]-isoxazol-17β-ol], the OD was found to be 0.798±0.037 with HUVEC cells [1] (0.1 μM, 72 hours); 0.378±0.037 in the assay on HUVEC cells [1] (1 μM, 48 hours); 0.484±0.022 with HUVEC cells [1] (1 μM, 72 hours); 0.288±0.037 in the assay on HUVEC cells [1] (10 μM, 24 hours); 0.241±0.012 in the assay with HUVEC cells [1] (10 μM, 48 hours); 0.229±0.016 in the assay with HUVEC cells [1] (10 μM, 72 hours). Moreover, the OD in the assay with HUVEC cells [1] (100 μM, 24 hours) was determined as 0.162±0.017; in the assay on HUVEC cells [1] (100 μM, 48 hours), 0.19±0.033; in the assay on HUVEC cells [1] (100 μM, 72 hours) it was 0.156±0.018. Also, the “effect on cell proliferation” value in the assay on HUVEC cells [1] (100 μM, all time points) is on record as “complete arrest of cell proliferation”. The “concentration at which inhibition was significant” value in the assay with HUVEC cells [1] (48 hours) is “approximately 1 μM”. The inhibition at 10 µM in the assay on HUVEC cells [1] (setting [4]) came out at 30%; with HUVEC cells [1] (setting [5]), 61%; with HUVEC cells [1] (setting [6]) it was 80%. Also, the inhibition at 100 µM with HUVEC cells [1] (setting [4]) worked out at 65%; in the assay with HUVEC cells [1] (setting [5]) it was 70%; in the assay with HUVEC cells [1] (setting [6]), 86%. For the same compound, the inhibition at 1 µM with HUVEC cells [1] (setting [5]) is 40%; in the assay on HUVEC cells [1] (setting [6]) it was 57%. In addition, the inhibition at 0.1 µM in the assay with HUVEC cells [1] (setting [6]) came to 28%. Besides, the “tube formation” value was “isolated colonies of HUVEC located in the plug with very few, thin connections or vessel lumen spaces” in the assay on HUVEC cells [2] (50 μM); “fewer organized structures with thin and less defined interconnections than controls” with HUVEC cells [2] (danazol 1-50 μM). In addition, the “effect on cell invasion” value in the assay on HUVEC cells [3] (10 μM) and in the assay on HUVEC cells [3] (100 μM) was “had no effect” each time.
